The results in this text go back to ChEMBL document CHEMBL1157539, “Thousands of chemical starting points for antimalarial lead identification” (Nature, 2010).

The subject of the test is Plasmodium falciparum. In words: GSK_TCMDC: Inhibition of Plasmodium falciparum 3D7 in whole erythrocytes, using parasite LDH activity as an index of growth. The conditions noted are these: Plasmodium falciparum, 3D7. The test is classed as functional, organism-based.
For the compound `OC(CNCc1ccccc1OCc1ccccc1)c1cccc(I)c1` (stereo unspecified), the XC50 turned out to be 418 nM.
For `Cc1[nH]c(C)c(-c2ccc(Oc3ccc(C(F)(F)F)cc3)cc2)c(=O)c1Br` the value was 206 nM; for `Cc1n[nH]c(C)c1C1CCN(CC2CCC(NC(=O)/C=C/c3ccc(Cl)c(Cl)c3)CC2)CC1` (stereo unspecified), 729 nM; for `COc1cc2c(cc1S(=O)(=O)c1ccc(OCc3ccc(Cl)cc3)cc1)CCN(Cc1ccc(NC(C)=O)s1)CC2`, 919 nM.
The compound `Cc1cccc2nc(-c3ccc(-c4ccc(NC(=O)Nc5ccc(F)c(F)c5F)cc4)s3)[nH]c12` yielded an XC50 of 176 nM.
Turning to `CCC(CO)NCC(O)Cn1c2ccc(Cl)cc2c2cc(Cl)ccc21` (stereo unspecified), the XC50 turned out to be 768 nM.
Turning to `O=C(Nc1cccc(Cl)c1Cl)Nc1ccnc2ccccc12`, the XC50 was found to be 745 nM.
`COCCNC(=O)C1CCN(C(c2ccc(Cl)cc2)c2ccc(Cl)cc2)CC1` returned an XC50 of 553 nM.
The compound `CCCCNC(=O)[C@@H]1CCCN1C(=O)c1ccc(O)c(-c2ccc(Cl)c(Cl)c2)c1` had an XC50 of 751 nM.
On to `COc1ccc(CC(C)NCC(O)c2cccc(Cl)c2)cc1C` (stereo unspecified), for which the XC50 is 902 nM.
Compound `N#Cc1ccc(-c2ccc(C(=O)NCCCCN3CCC(c4cn(CCO)c5ccccc45)CC3)cc2)cc1` yielded an XC50 of 954 nM.
With `Cc1[nH]c(C)c(-c2ccc(-c3ccc(OC(F)(F)F)cc3)nc2)c(=O)c1Cl`, the XC50 is 201 nM.
For the compound `COc1cc(Cc2cnc(N)nc2N)ccc1OCc1ccc(F)c(F)c1`, the XC50 worked out at 910 nM.
`CCCC[C@@H](C(=O)NCc1ccccc1C(F)(F)F)N1C(=O)CCC1C(=O)Nc1ccc([N+](=O)[O-])cc1` (stereo partly specified) showed an XC50 of 848 nM.
On to `O=S(=O)(c1c(Cl)cc(Cl)cc1Cl)N1CCCCC(c2ccc(Cl)cc2)=N1`, for which the XC50 amounted to 402 nM.
For `O=C1CCCN1CCCNCc1ccc(-c2cccc(-c3nc4cc(C(F)(F)F)ccc4[nH]3)c2)cc1` the value was 191 nM; for `CN(C)CCCOc1ccc(-c2nc(-c3ccc4c(c3)CCC4=NO)c(-c3ccncc3)[nH]2)cc1`, 832 nM.
Regarding `Cc1cc(=NN=Cc2ccc(Cl)cc2)c2ccccc2[nH]1`, the XC50 came out at 787 nM.
`O=C(O[C@@H]1CN[C@H](C#Cc2cc3c(Nc4ccc5c(cnn5Cc5ccccc5)c4)ncnc3s2)C1)N1CCCC1` registered an XC50 of 424 nM.
For `O=C(Nc1ccc(Cl)c(Cl)c1)N1CCC(CNCc2cccc([N+](=O)[O-])c2)CC1` the value was 979 nM.
As to `CCC(C)CN1CCCN(c2ccc(NC(=O)c3cccs3)cc2)CC1` (stereo unspecified), the XC50 was found to be 802 nM.
For `O=C(/C=C/c1ccc(Cl)c(Cl)c1)NCCCCCN1CCN(C(=O)Nc2ccc(C(F)(F)F)cc2)CC1` the value was 721 nM; for `N#Cc1cccc(NC(=O)NC2CCN(CCCCCNC(=O)C3CC3c3ccc(Cl)c(Cl)c3)CC2)c1` (stereo unspecified), 785 nM.
`NS(=O)(=O)Cc1cccc(-c2ccnc3ccc(-c4cccc(S(N)(=O)=O)c4)cc23)c1`: the XC50 stood at 1560 nM.
With `NC1=NC(c2ccccc2)(c2ccccc2)C(=O)N1CC1CCC1`, the XC50 is 753 nM.
Turning to `COc1cc(CN2CCC(NC(=O)[C@H](Cc3ccccc3)NC(=O)Nc3ccc(Oc4ccccc4)cc3)C2)ccc1O` (stereo partly specified), the XC50 amounted to 810 nM.
Turning to `COc1ccc(C)cc1NC(=O)CSc1nc2cccnc2n1C1CCCCC1`, the XC50 came out at 544 nM.
Consider `CCn1c2ccccc2c2cc(Cc3cnc(N)nc3N)ccc21`, for which the XC50 turned out to be 221 nM.
Take `CCC1CCCCN1S(=O)(=O)c1ccc(NC(=O)c2cc(C)on2)cc1` (stereo unspecified): the XC50 is 1240 nM.
`CC1=C(C(=O)Nc2cc3cn[nH]c3cc2F)C(c2cccc(NS(C)(=O)=O)c2)CC(=O)N1` (stereo unspecified): the XC50 is 434 nM.
With `O=c1cc(NCCCN(Cc2cc3c(Cl)cc(Cl)cc3[nH]2)Cc2cc3c(Cl)cc(Cl)cc3[nH]2)[nH]c2ccccc12`, the XC50 turned out to be 121 nM.
Compound `O=C(Nc1ccc(C(=O)N2CCN(CCN3CCN(c4cccc(C(F)(F)F)c4)CC3)CC2)cc1)c1cc(Cl)cc(Cl)c1` showed an XC50 of 827 nM.
Regarding `Cc1cc(CN2CCN(CCOC(c3ccccc3)c3ccccc3)CC2)ccc1O`, the XC50 was 935 nM.
With `COc1ccc(-c2onc(C(F)(F)F)c2-c2cc3ccccc3o2)c(O)c1`, the XC50 turned out to be 863 nM.
In turn, `CC(C)Nc1cc(C(=O)N[C@@H](Cc2ccccc2)[C@H](O)CNCc2cccc(C(F)(F)F)c2)c(F)c(N2CCCCS2(=O)=O)c1` came in with an XC50 of 794 nM.
As for `O=c1nc(NCCCCCN2CCC(c3c[nH]c4ccccc34)CC2)[nH]cc1Cc1ccc(Cl)c(Cl)c1`, the figure is 969 nM.
On to `O=C(NC1CCCCC1)N(CCCn1ccnc1)Cc1csc(-c2ccc(CNCc3ccccc3)cc2)n1`, for which the XC50 was determined as 843 nM.
For `OC(CN1CCN(c2cccc(Cl)c2)CC1)C(c1ccccc1)c1ccccc1` (stereo unspecified), the XC50 came out at 1150 nM.
Turning to `COc1ccc(N(C)Cc2cnc3nc(N)nc(N)c3n2)cc1`, the XC50 turned out to be 284 nM.
As for `c1ccc2[nH]c(-c3ccc(-c4ccc(CN5CCCCC5)cc4)s3)nc2c1`, the figure is 742 nM.
As to `Oc1ccccc1CN1CCN(C(c2ccccc2)c2ccccc2)CC1`, the XC50 was determined as 761 nM.
As for `Cc1ccc(-n2nc(C)c3c2NC(=O)CSC3c2ccsc2)cc1` (stereo unspecified), the XC50 came out at 1010 nM.
`O=C(Nc1ccon1)c1cc(-c2cccnc2)nc2ccc(Br)cc12` returned an XC50 of 744 nM.
`COc1nc2c(N3CCN(CCNCc4ccc5c(n4)NC(=O)CO5)CC3)ccnc2cc1F` had an XC50 of 758 nM.
`O=C(Nc1ccc(N2CCNCC2)cc1)c1ccn2ncc(-c3cccc(Cl)c3)c2n1` showed an XC50 of 922 nM.
The compound `Cn1cnc2c(Nc3ccncc3)nc(-c3ccc4ccccc4c3)nc21` displayed an XC50 of 867 nM.
`O=C(Nc1cccc(CN2CCN(C(=O)c3cccc(Cl)c3)CC2)c1)c1ccco1`: the XC50 is 438 nM.
As to `COc1cccc(Nc2nccc(-c3c(-c4cccc(NC(=O)c5c(F)cccc5F)c4)nn4ccccc34)n2)c1`, the XC50 was found to be 178 nM.
On to `O=C(Cc1n[nH]c(=O)c2ccccc12)Nc1cccc(C(=O)Nc2cccc(C(F)(F)F)c2)c1`, for which the XC50 was 169 nM.
As for `O=C(NCCN1CCCC1)c1cccc(-c2ccc(-c3nc4ccccc4[nH]3)cc2)c1`, the XC50 turned out to be 919 nM.
Compound `Cc1cc(NC(=O)Nc2ccc(Oc3ccccc3)cc2)c2ccccc2n1` came in with an XC50 of 840 nM.
For `FC(F)(F)c1cccc(CNCC2CCN(Cc3ccc4c(c3)OCO4)CC2)c1`, the XC50 is 725 nM.
For `O=C(Nc1ccc(Cl)c(C(F)(F)F)c1)NC1CCN(CCCCCNC(=O)C2CC2c2ccc(Cl)c(Cl)c2)CC1` (stereo unspecified) the value was 683 nM; for `CNC(=N)c1ccc(NC(=O)Nc2ccc(C(=N)NC)cc2)cc1`, 577 nM.
`Cc1cccc2nc(-c3ccc(-c4ccc(CNCCCN5CCCC5=O)cc4)cc3)[nH]c12`: the XC50 was 632 nM.
`O=C1O[C@H](c2ccccc2)[C@H](c2ccccc2)N(C(=O)OCc2ccccc2)[C@H]1Cc1ccccc1C1CCCC1`: the XC50 is 59.1 nM.
Regarding `CCn1c(-c2nonc2N)nc2c(-c3cccc(Cl)c3)ncc(OCCCNCCc3c[nH]cn3)c21`, the XC50 worked out at 983 nM.
Regarding `Cc1cccc2nc(-c3cccc(-c4ccc(NC(=O)c5cnccc5C(F)(F)F)cc4)c3)[nH]c12`, the XC50 was 695 nM.
In turn, `COC(=O)c1cccc(CNCc2ccc(-c3cccc(-c4nc5cc(C(F)(F)F)ccc5[nH]4)c3)cc2)c1` gave an XC50 of 156 nM.
Compound `CC(C)(C)C(=O)N1CCN(c2ccc([N+](=O)[O-])c(NC3CC3)c2)CC1` registered an XC50 of 941 nM.
As for `CC(=O)OCCN1C(=O)c2ccc3c4c(ccc(c24)C1=O)C(=O)N(CCOC(C)=O)C3=O`, the figure is 238 nM; as for `COc1ccc(Nc2nccc(N3CCC(NC(=O)C(C)c4ccc(Cl)cc4)CC3)n2)cc1` (stereo unspecified), 934 nM.
In the case of `COc1ccc(-c2nc(NC(=O)Cc3coc4cc(OC)ccc34)sc2C)cc1`, the XC50 was 609 nM.
Consider `CC(C)CNc1c2c(nc3cnn(-c4c5c(nc6cn[nH]c46)CCCC5)c13)CCCC2`, for which the XC50 was 795 nM.
Regarding `COc1cc(-c2nc(-c3ccccc3)c(-c3ccccc3)[nH]2)ccc1OCCN(C)C`, the XC50 is 303 nM.
Compound `CN(C)C(=O)CC(=O)NCc1cccc(Cl)c1` returned an XC50 of 711 nM.
As for `Cc1ccc(-c2ccn(Cc3cccc(OCc4ccccc4)c3)n2)cn1.Cc1ccc(-c2ccnn2Cc2cccc(OCc3ccccc3)c2)cn1`, the figure is 1180 nM.
For the compound `CC(C)Cc1nc(N)nc(N)c1-c1ccc(Cl)cc1`, the XC50 was determined as 145 nM.
With `CCOC(=O)c1cnc2cc(N3CCCC3)c(Cl)cc2c1OCC`, the XC50 turned out to be 108 nM.
For the compound `Cc1n[nH]c2ccc(-c3cc(OC[C@@H](N)Cc4ccccc4)cnc3-c3cc4ccccc4s3)cc12`, the XC50 worked out at 810 nM.
In turn, `COc1cc(Nc2ccnc3cc(-c4nccs4)ccc23)ccc1OCCCc1nc2ccccc2[nH]1` came in with an XC50 of 237 nM.
`Cc1[nH]c2c(NCc3ccc(F)cc3)nccc2c1C` came in with an XC50 of 1360 nM.
In turn, `COc1ccc2ncc(OC)c(CCN3CC[C@@H](NCc4ccc5c(n4)NC(=O)CS5)[C@H](O)C3)c2n1` returned an XC50 of 831 nM.
The compound `O=S(=O)(Nc1cccc(F)c1CNCc1ccccn1)c1ccc(Cl)c(Cl)c1` displayed an XC50 of 889 nM.
With `COc1ccc(NC(=O)Nc2cc(C)nc3cccnc23)cc1Cn1ccnc1`, the XC50 was determined as 736 nM.
For the compound `O=C(/C=C/c1ccc(Cl)c(Cl)c1)NCCCCCN1CCN(C(=O)Nc2ccc(OC(F)F)cc2)CC1`, the XC50 turned out to be 945 nM.
`CC12CCC(C(=O)N(CC(O)Cn3c4ccc(Cl)cc4c4cc(Cl)ccc43)C1=O)C2(C)C` (stereo unspecified): the XC50 worked out at 844 nM.
For `COc1ccccc1CNC(=O)c1cc(OC)c(OC)cc1NC(=O)c1cccs1` the value was 1440 nM.
With `O=C(NC1CCN(CCC[C@]2(c3ccc(Cl)c(Cl)c3)CCCN(C(=O)c3ccccc3)C2)CC1)c1ccc(F)cc1`, the XC50 amounted to 883 nM.
Consider `CCCCCCN1CCC(NCc2ccc(C(F)(F)F)cc2)CC1`, for which the XC50 is 375 nM.
As to `Cc1cc(NC(=O)Nc2ccc(C(C)(C)C)cc2)c2ccccc2n1`, the XC50 is 719 nM.
For `Cc1cccc(NC(c2cccs2)c2c(NC(=O)c3ccccc3)sc(C)c2C)n1` (stereo unspecified) the value was 832 nM; for `CN(Cc1cccc(F)c1)C1CCCN(c2cc(NC(=O)c3ccccc3)ccn2)C1` (stereo unspecified), 919 nM.
`COC(=O)c1ccc(NC(=O)Nc2cccc(CCNCc3ccccc3)c2)cc1` came in with an XC50 of 867 nM.
`CC(CN1CCN(C)CC1)C(=O)Nc1cccc(-c2ccc(-c3nc4cc(F)ccc4[nH]3)cc2)c1` (stereo unspecified) came in with an XC50 of 807 nM.
`CC1(C)CC2CC(C)(CN2C(=O)c2cc(C(C)(C)C)nn2Cc2ccccc2)C1` (stereo unspecified) came in with an XC50 of 1090 nM.
